For one assay, the system named is CYPDI. Kind of assay: Example I postemergence foliar-applied, greenhouse, direct seeded rice weeds. The note with it: 4.38 gae/ha. Format: in vivo, Cyperus difformis L. An excerpt: (§1) Seeds or nutlets of the desired test plant species were planted in a soil matrix prepared by mixing a loam or sandy loam soil (e.g., 28.6 percent silt, 18.8 percent clay, and 52.6 percent sand, with a pH of about 5.8 and an organic matter content of about 1.8 percent) and calcareous grit in an 80 to 20 ratio. The soil matrix was contained in plastic pots with a volume of 1 quart and a surface area of 83.6 square centimeters (cm^2). When required to ensure good germination and healthy plants, a fungicide treatment and/or other chemical or physical treatment was applied. The plants were grown for 8-22 days in a greenhouse with an approximate 14 hr. photoperiod which was maintained at about 29° C. during the day and 26° C. during the night. Nutrients (Peters Excel® 15-5-15 5-Ca 2-Mg and iron chelate) were applied in the irrigation solution as needed and water was added on a regular basis. Supplemental lighting was provided with overhead metal halide 1000-Watt lamps as necessary. The plants were employed for testing when they reached the first through fourth true leaf stage.
Treatments consisted of the acid or esters of 4-amino-3-chloro-5-fluoro-6-(4-chloro-2-fluoro-3-methoxy-phenyl)pyridine-2-carboxylic acid (Compound A), each formulated as an SC (suspension concentrate), and various herbicidal components alone and in combination.
Other herbicidal components were applied on an acid equivalent (ae) or active ingredient (ai) basis and included acetyl coA carboxylase (ACCase)-inhibiting herbicides (cyclohexanedione and aryloxyphenoxypropionate chemical classes) cyhalofop-butyl formulated as Clincher® SF (285 gr ai/L EC), diclofop-methyl formulated as Hoelon® 3EC, fenoxaprop-p-ethyl+isoxadifen-ethyl formulated as RiceStar® HT (0.58 lb./gal EC), fenoxaprop-p-ethyl+mefenpyr diethyl formulated as Puma® IEC, metamifop formulated as Metamifop EC, haloxyfop-methyl formulated as Gallant Super®, fluazifop-p-butyl formulated as Fusilade® DX, quizalofop-p-ethyl formulated as Assure® II, profoxydim formulated as Aura® 20EC, clethodim applied as Intensity®, sethoxydim formulated as Poast®, and tralkoxydim formulated as Achieve®.
(§2) Treatment requirements were calculated based upon the rates being tested, the concentration of active ingredient or acid equivalent in the formulation, and a 12 mL application volume at a rate of 187 L/ha.
For treatments comprised of formulated compounds, measured amounts of compounds were placed individually in 25 mL glass vials and diluted in a volume of 1.25% (v/v) Agri-Dex® crop oil concentrated to obtain 12× stock solutions. […] Application solutions were prepared by adding an appropriate amount of each stock solution (e.g., 1 mL) and diluted to the appropriate final concentrations with the addition of 10 mL of an aqueous mixture of 1.25% (v/v) crop oil concentrate so that the final spray solutions contained 1.25+/−0.05% (v/v) crop oil concentrate.
All stock solutions and applications solutions were visually inspected for compound compatibility prior to application. […]
(§3) The treated plants and control plants were placed in a greenhouse as described above and watered by sub-irrigation to prevent wash-off of the test compounds. After approximately 3 weeks, the condition of the test plants as compared with that of the untreated plants was determined visually and scored on a scale of 0 to 100 percent where 0 corresponds to no injury or growth inhibition and 100 corresponds to complete kill. […]

For another assay, the system named is DIGSA. The description is as above. Format: in vivo, Digitaria sanguinalis (L.) Scop.
Description: as §1
Treatments consisted of the acid or esters of 4-amino-3-chloro-5-fluoro-6-(4-chloro-2-fluoro-3-methoxy-phenyl)pyridine-2-carboxylic acid (Compound A), each formulated as an SC (suspension concentrate), and various herbicidal components alone and in combination. […]
as §2
For treatments comprised of formulated compounds, measured amounts of compounds were placed individually in 25 mL glass vials and diluted in a volume of 1.25% (v/v) Agri-Dex® crop oil concentrated to obtain 12× stock solutions. […]
as §3

Another assay relates to ALOMY. Kind of assay: Example IV postemergence foliar-applied, greenhouse, cereal crops weeds. Type of assay: in vivo, Alopecurus myosuroides Huds. As to the method: (§4) Seeds of the desired test plant species were planted in Sun Gro MetroMix® 306 planting mixture, which typically has a pH of 6.0 to 6.8 and an organic matter content of about 30 percent, in plastic pots with a surface area of 103.2 square centimeters (cm^2). When required to ensure good germination and healthy plants, a fungicide treatment and/or other chemical or physical treatment was applied. The plants were grown for 7-36 days in a greenhouse with an approximate 14 hour photoperiod which was maintained at about 18° C. during the day and about 17° C. during the night. Nutrients and water were added on a regular basis and supplemental lighting was provided with overhead metal halide 1000-Watt lamps as necessary. The plants were employed for testing when they reached the second or third true leaf stage.
(§5) Treatments consisted of the benzyl ester of 4-amino-3-chloro-5-fluoro-6-(4-chloro-2-fluoro-3-methoxy-phenyl)pyridine-2-carboxylic acid (Compound A), formulated as an SC, a second cereal herbicide alone and then both in combination.
(§6) Other herbicidal components were applied on an active ingredient basis and included acetyl-CoA carboxylase (ACCase)-inhibiting herbicides clodinafop-propargyl, fenoxaprop-P-ethyl, pinoxaden and tralkoxydim.
(§7) Measured aliquots of benzyl ester of 4-amino-3-chloro-5-fluoro-6-(4-chloro-2-fluoro-3-methoxy-phenyl)pyridine-2-carboxylic acid (Compound A) were placed in 25 milliliter (mL) glass vials and diluted in a volume of 1.25% (v/v) Agri-Dex® crop oil concentrate to obtain stock solutions. Compound requirements are based upon a 12 mL application volume at a rate of 187 liters per hectare (L/ha). Spray solutions of the second cereal herbicide and experimental compound mixtures were prepared by adding the stock solutions to the appropriate amount of dilution solution to form 12 mL spray solution with active ingredients in two- and three-way combinations. Formulated compounds were applied to the plant material with an overhead Mandel track sprayer equipped with an 8002E nozzle calibrated to deliver 187 L/ha over an application area of 0.503 square meters (m^2) at a spray height of 18 inches (46 cm) above average plant canopy. Control plants were sprayed in the same manner with the solvent blank.
(§8) The treated plants and control plants were placed in a greenhouse as described above and watered by sub-irrigation to prevent wash-off of the test compounds. After 20-22 days, the condition of the test plants as compared with that of the control plants was determined visually and scored on a scale of 0 to 100 percent where 0 corresponds to no injury and 100 corresponds to complete kill. […]

A further assay deals with AVEFA. Described as above. Format: in vivo, Avena fatua L. The protocol:
as §4, §5, §6, §7, §8

Setting [1] is: Compound A Benzyl Ester 5 gai/ha.
The mark [2] stands for this setting: Compound A Benzyl Ester 10 gai/ha.

The record followed here is patent US9232796B2, “Herbicidal compositions comprising 4-amino-3-chloro-5-fluoro-6-(4-chloro-2-fluoro-3-methoxyphenyl) pyridine-2-carboxylic acid or a derivative thereof and acetyl-CoA carboxylase (ACCase) inhibitors” (DOW AGROSCIENCES LLC, priority 2012, dated 2016).

As for `COc1c(Cl)ccc(-c2nc(C(=O)O)c(Cl)c(N)c2F)c1F` [Compound A Acid, 4-amino-3-chloro-6-(4-chloro-2-fluoro-3-methoxyphenyl)-5-fluoropyridine-2-carboxylic acid], in the assay on CYPDI, the “Visual Weed Control (%) - 20 DAA CYPDI Obs” value was determined as 80% and the “Visual Weed Control (%) - 22 DAA CYPDI Obs” value is listed as 60%.
Take `COc1c(Cl)ccc(-c2nc(C(=O)OCc3ccccc3)c(Cl)c(N)c2F)c1F` [Compound A Benzyl Ester, benzyl ester of 4-amino-3-chloro-5-fluoro-6-(4-chloro-2-fluoro-3-methoxy-phenyl)pyridine-2-carboxylic acid]: the “Visual Weed Control (%) - 20 DAA DIGSA Obs” value was determined as 15% in the assay with DIGSA (8 gae/ha), 25% in the assay with DIGSA (16 gae/ha) and 35% with DIGSA (32 gae/ha). The “Visual Weed Control (%) - 21 DAA ALOMY Obs” value with ALOMY (setting [1]) and with ALOMY (setting [2]) was 0% each time. Further, the “Visual Weed Control (%) - 21 DAA AVEFA Obs” value in the assay with AVEFA (setting [1]) and with AVEFA (setting [2]) was 0% throughout.
